Measured values reported in patent publication US20040068762A1, “Transgenic non-human mammals expressing a reporter nucleic acid under the regulation of androgen response elements” (priority 2002, published 2004).
Where two headings read alike, the source gives them in different places.

Test system: androgen receptor

Row | SMILES | inhibition of the testosterone effect (luciferase expression) (bone, Casodex 50 mg/kg p.o. with testosterone 2 mg/kg s.c.) [%] | luciferase response in kidney (inhibition of testosterone effect) (kidney, Casodex 50 mg/kg p.o. with testosterone 2 mg/kg s.c.) | inhibition of the testosterone effect (luciferase expression) (prostate-seminal vesicles, Casodex 50 mg/kg p.o. with testosterone 2 mg/kg s.c.) [%] | inhibition of the testosterone effect (luciferase expression) (quadriceps, Casodex 50 mg/kg p.o. with testosterone 2 mg/kg s.c.) [%] | luciferase induction over untreated (bone, testosterone 2 mg/kg s.c.) [fold] | luciferase response in kidney (testosterone induction) (kidney, testosterone 2 mg/kg s.c.) | luciferase induction over untreated (prostate-seminal vesicles, testosterone 2 mg/kg s.c.) [fold] | luciferase induction over untreated (quadriceps, testosterone 2 mg/kg s.c.) [fold]
1 | CC(O)(CS(=O)(=O)c1ccc(F)cc1)C(=O)Nc1ccc(C#N)c(C(F)(F)F)c1 (centres unmarked) [bicalutamide] | 86 | No response | 90 | 92 | – | – | – | –
2 | C[C@]12CC[C@H]3[C@@H](CCC4=CC(=O)CC[C@@]43C)[C@@H]1CC[C@@H]2O [testosterone] | – | – | – | – | 3.3 | No response | 5.6 | 5.8
